The source of these data is ChEMBL document CHEMBL4837220, “Development of tricyclic N-benzyl-4-hydroxybutanamide derivatives as inhibitors of GABA transporters mGAT1-4 with anticonvulsant, antinociceptive, and antidepressant activity” (Eur J Med Chem, 2021).

Structures are written as SMILES. Calls of active or inactive are those of the source.

For the first experiment, the target named is GABA transporter 3 (Mus musculus, Slc6a13). In words: Inhibition of mouse GAT3 expressed in human HEK293 cell line assessed as inhibition of [3H]GABA uptake measured after 40 mins by […].
For orientation: pIC50 means −log10 of the IC50, conventionally taken in molar units. As to `O=C(O)C1=CCCN(CCO/N=C/c2ccccc2-c2ccc(Cl)cc2Cl)C1`, the pIC50 was found to be 4.35.

Take `CN(CCC=C(c1ccccc1)c1ccccc1)C(CCO)C(=O)NCc1ccccc1Cl` (stereo not drawn): the pIC50 turned out to be 5.14.

On to `CC(=O)NCCC(C(=O)NCc1ccccc1Cl)N(C)CCC=C(c1sccc1C)c1sccc1C` (stereo not drawn), for which the pIC50 was 5.61.

The target of another experiment is T1, GABA transporter 4 (Mus musculus, UniProt P31650).
T1 sequence (P31650 whole entry): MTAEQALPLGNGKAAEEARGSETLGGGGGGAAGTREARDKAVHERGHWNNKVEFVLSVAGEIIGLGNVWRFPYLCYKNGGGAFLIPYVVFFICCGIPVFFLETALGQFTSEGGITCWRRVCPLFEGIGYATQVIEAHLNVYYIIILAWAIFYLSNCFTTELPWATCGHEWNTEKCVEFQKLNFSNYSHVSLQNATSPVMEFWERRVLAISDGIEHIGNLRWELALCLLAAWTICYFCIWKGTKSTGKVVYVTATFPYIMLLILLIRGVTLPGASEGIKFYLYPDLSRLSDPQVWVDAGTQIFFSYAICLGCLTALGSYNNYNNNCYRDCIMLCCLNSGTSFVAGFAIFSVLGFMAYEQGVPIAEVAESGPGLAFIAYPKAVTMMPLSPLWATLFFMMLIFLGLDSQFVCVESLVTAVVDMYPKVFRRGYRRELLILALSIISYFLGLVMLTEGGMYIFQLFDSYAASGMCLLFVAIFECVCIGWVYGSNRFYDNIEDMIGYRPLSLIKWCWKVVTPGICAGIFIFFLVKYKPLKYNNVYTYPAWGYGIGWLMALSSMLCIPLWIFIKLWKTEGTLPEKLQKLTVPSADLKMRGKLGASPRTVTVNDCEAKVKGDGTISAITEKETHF
The experiment is described as follows: Inhibition of mouse GAT4 expressed in human HEK293 cell line assessed as inhibition of [3H]GABA uptake measured after 40 mins by […]. It counts as cell-based.
As usually defined, the IC50 is the concentration at which inhibition is half-maximal. For the molecule `COc1ccc(C(OCCN2CCC[C@H](C(=O)O)C2)(c2ccc(OC)cc2)c2ccc(-c3ccc(C=O)cc3)cc2)cc1`, the IC50 is 1.29 µM.

For `CN(CCC=C1c2ccccc2CCc2ccccc21)C(CCN)C(=O)NCc1ccccc1Cl` (stereo not drawn), the IC50 is 4.9 µM.

With `CN(CCC=C1c2ccccc2CCc2ccccc21)C(CCO)C(=O)NCc1ccccc1Cl` (stereo not drawn), the IC50 is 15.8 µM.

Take `CC(=O)NCCC(C(=O)NCc1ccc(F)cc1)N(C)CCC=C1c2ccccc2CCc2ccccc21` (stereo not drawn): the IC50 is 11.2 µM.

Consider `CN(CCC=C1c2ccccc2C=Cc2ccccc21)C(CCO)C(=O)NCc1ccc(Cl)cc1` (stereo not drawn), for which the IC50 was 15.8 µM.

Turning to `CN(CCC=C1c2ccccc2C=Cc2ccccc21)C(CCO)C(=O)NCc1ccc(F)cc1` (stereo not drawn), the IC50 was 13.5 µM.

As to `CC(=O)NCCC(C(=O)NCc1ccc(Cl)cc1)N(C)CCC=C1c2ccccc2CCc2ccccc21` (stereo not drawn), the half-inhibitory concentration (IC50) was 12.6 µM.

As to `CN(CCC=C1c2ccccc2CCc2ccccc21)C(CCN)C(=O)NCc1ccc(F)cc1` (stereo not drawn), the IC50 is 4.37 µM.

Turning to `CN(CCC=C1c2ccccc2CCc2ccccc21)C(CCO)C(=O)NCc1ccc(F)cc1` (stereo not drawn), the IC50 was 13.2 µM.

On to `CN(CCC=C1c2ccccc2CCc2ccccc21)C(CCN)C(=O)NCc1ccc(Cl)cc1` (stereo not drawn), for which the IC50 is 5.62 µM.

For the molecule `CC(=O)NCCC(C(=O)NCc1ccccc1Cl)N(C)CCC=C1c2ccccc2CCc2ccccc21` (stereo not drawn), the IC50 was 18.6 µM.

`CC(=O)NCCC(C(=O)NCc1ccc(C)cc1)N(C)CCC=C1c2ccccc2CCc2ccccc21` (stereo not drawn): the IC50 was 13.5 µM.

In the case of `CN(CCC=C(c1ccccc1)c1ccccc1)C(CCO)C(=O)NCc1ccccc1Cl` (stereo not drawn), the IC50 is 10 µM.

A further experiment deals with T2, Sodium- and chloride-dependent GABA transporter 1 (Mus musculus, UniProt P31648). The experiment is described as follows: Inhibition of NO711 binding to mouse GAT1 expressed in human HEK293 cell line by MS binding assay.
Broadly, the pKi is the negative decadic logarithm of the Ki, by convention in mol/L. The low end stands for a large Ki, the high end for a small Ki. Turning to `CN(CCC=C1c2ccccc2CCc2ccccc21)C(CCN)C(=O)NCc1ccccc1Cl` (stereo not drawn), the pKi is 4.87.

Molecule `CN(CCC=C1c2ccccc2CCc2ccccc21)C(CCN)C(=O)NCc1ccc(F)cc1` (stereo not drawn) returned a pKi of 4.96.

Take `CN(CCC=C1c2ccccc2CCc2ccccc21)C(CCN)C(=O)NCc1ccc(Cl)cc1` (stereo not drawn): the pKi was 4.6.

Molecule `O=C(O)C1=CCCN(CCO/N=C/c2ccccc2-c2ccc(Cl)cc2Cl)C1` gave a pKi of 8.29.

Another experiment has as its system Mus musculus. The experiment is described as follows: Anticonvulsant activity in CD-1 mouse assessed as elevation of seizure threshold at 10 mg/kg, ip measured by electroconvulsive threshold test relative to control. It counts as functional, organism-based.
Regarding `O=C(O)C1=CCCN(CCO/N=C/c2ccccc2-c2ccc(Cl)cc2Cl)C1`, the outcome was inactive.

The next experiment deals with T3, GABA transporter 2 (Mus musculus, UniProt P31651).
T3 sequence (P31651 whole entry): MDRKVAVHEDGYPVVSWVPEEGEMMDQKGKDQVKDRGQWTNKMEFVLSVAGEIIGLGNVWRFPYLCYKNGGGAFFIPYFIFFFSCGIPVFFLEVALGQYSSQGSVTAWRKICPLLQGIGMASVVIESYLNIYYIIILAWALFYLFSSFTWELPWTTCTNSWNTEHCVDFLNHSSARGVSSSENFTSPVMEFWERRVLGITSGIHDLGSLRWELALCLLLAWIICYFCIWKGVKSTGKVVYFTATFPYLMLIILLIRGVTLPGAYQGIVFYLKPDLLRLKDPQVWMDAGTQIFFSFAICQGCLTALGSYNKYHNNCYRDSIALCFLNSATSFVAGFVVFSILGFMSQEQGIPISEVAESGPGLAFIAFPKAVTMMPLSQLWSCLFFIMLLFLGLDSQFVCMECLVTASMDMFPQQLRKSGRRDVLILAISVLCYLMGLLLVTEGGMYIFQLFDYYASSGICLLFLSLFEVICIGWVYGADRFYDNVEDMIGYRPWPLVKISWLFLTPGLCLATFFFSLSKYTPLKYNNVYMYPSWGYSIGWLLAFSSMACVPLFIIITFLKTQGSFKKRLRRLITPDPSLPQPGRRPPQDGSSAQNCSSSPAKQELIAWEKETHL
In words: Inhibition of mouse GAT2 expressed in human HEK293 cell line assessed as inhibition of [3H]GABA uptake measured after 40 mins by […]. It counts as cell-based.
As for `CN(CCC=C1c2ccccc2CCc2ccccc21)C(CCN)C(=O)NCc1ccccc1Cl` (stereo not drawn), the IC50 was 13.5 µM.

As to `CN(CCC=C1c2ccccc2CCc2ccccc21)C(CCO)C(=O)NCc1ccccc1Cl` (stereo not drawn), the IC50 was 11 µM.

For the molecule `CC(=O)NCCC(C(=O)NCc1ccc(F)cc1)N(C)CCC=C1c2ccccc2CCc2ccccc21` (stereo not drawn), the IC50 was 19.5 µM.

Turning to `CN(CCC=C1c2ccccc2C=Cc2ccccc21)C(CCO)C(=O)NCc1ccc(Cl)cc1` (stereo not drawn), the IC50 was 14.5 µM.

`CN(CCC=C1c2ccccc2C=Cc2ccccc21)C(CCO)C(=O)NCc1ccc(F)cc1` (stereo not drawn): the IC50 was 10.2 µM.

In the case of `CC(=O)NCCC(C(=O)NCc1ccc(Cl)cc1)N(C)CCC=C1c2ccccc2CCc2ccccc21` (stereo not drawn), the IC50 was 47.9 µM.

Consider `CN(CCC=C1c2ccccc2CCc2ccccc21)C(CCN)C(=O)NCc1ccc(F)cc1` (stereo not drawn), for which the IC50 is 11.7 µM.

On to `CN(CCC=C1c2ccccc2CCc2ccccc21)C(CCO)C(=O)NCc1ccc(F)cc1` (stereo not drawn), for which the IC50 was 5.75 µM.

In the case of `CN(CCC=C1c2ccccc2CCc2ccccc21)C(CCN)C(=O)NCc1ccc(Cl)cc1` (stereo not drawn), the IC50 was 11 µM.

Take `CC(=O)NCCC(C(=O)NCc1ccccc1Cl)N(C)CCC=C1c2ccccc2CCc2ccccc21` (stereo not drawn): the IC50 was 26.3 µM.

In the case of `CC(=O)NCCC(C(=O)NCc1ccc(C)cc1)N(C)CCC=C1c2ccccc2CCc2ccccc21` (stereo not drawn), the IC50 was 15.5 µM.

As to `O=C(O)C1=CCCN(CCO/N=C/c2ccccc2-c2ccc(Cl)cc2Cl)C1`, the IC50 was 49 µM.

On to `CN(CCC=C(c1ccccc1)c1ccccc1)C(CCO)C(=O)NCc1ccccc1Cl` (stereo not drawn), for which the IC50 was 12.6 µM.

`CC(=O)NCCC(C(=O)NCc1ccccc1Cl)N(C)CCC=C(c1sccc1C)c1sccc1C` (stereo not drawn): the IC50 is 4.47 µM.

The target in another experiment is T4, GABA transporter 2 (Mus musculus) (UniProt P31651).
T4 sequence (whole entry): T3 sequence (P31651 whole entry)
In words: Inhibition of mouse GAT2 expressed in human HEK293 cell line assessed as residual [3H]GABA uptake at 100 uM measured after 40 mins by […].
For orientation: residual activity means the signal under treatment as a percentage of the control signal. Consider `COc1ccc(C(OCCN2CCC[C@H](C(=O)O)C2)(c2ccc(OC)cc2)c2ccc(-c3ccc(C=O)cc3)cc2)cc1`, for which the residual activity is 73%.

For another experiment, the target named is Sodium- and chloride-dependent GABA transporter 1 (Mus musculus) (UniProt P31648). The experiment is described as follows: Residual NO711 binding to mouse GAT1 expressed in human HEK293 cell line at 100 uM by MS binding assay relative to control.
`COc1ccc(C(OCCN2CCC[C@H](C(=O)O)C2)(c2ccc(OC)cc2)c2ccc(-c3ccc(C=O)cc3)cc2)cc1`: the residual activity came to 77%.

The molecule `CN(CCC=C1c2ccccc2CCc2ccccc21)C(CCO)C(=O)NCc1ccccc1Cl` (stereo not drawn) gave a residual activity of 82%.

Turning to `CC(=O)NCCC(C(=O)NCc1ccc(F)cc1)N(C)CCC=C1c2ccccc2CCc2ccccc21` (stereo not drawn), the residual activity was found to be 71%.

`CN(CCC=C1c2ccccc2C=Cc2ccccc21)C(CCO)C(=O)NCc1ccc(Cl)cc1` (stereo not drawn) returned a residual activity of 63%.

Consider `CN(CCC=C1c2ccccc2C=Cc2ccccc21)C(CCO)C(=O)NCc1ccc(F)cc1` (stereo not drawn), for which the residual activity was 71%.

`CC(=O)NCCC(C(=O)NCc1ccc(Cl)cc1)N(C)CCC=C1c2ccccc2CCc2ccccc21` (stereo not drawn) came in with a residual activity of 90%.

`CN(CCC=C1c2ccccc2CCc2ccccc21)C(CCO)C(=O)NCc1ccc(F)cc1` (stereo not drawn): the residual activity was found to be 81%.

Take `CC(=O)NCCC(C(=O)NCc1ccccc1Cl)N(C)CCC=C1c2ccccc2CCc2ccccc21` (stereo not drawn): the residual activity was determined as 87%.

Molecule `CC(=O)NCCC(C(=O)NCc1ccc(C)cc1)N(C)CCC=C1c2ccccc2CCc2ccccc21` (stereo not drawn) came in with a residual activity of 69%.

The molecule `CN(CCC=C(c1ccccc1)c1ccccc1)C(CCO)C(=O)NCc1ccccc1Cl` (stereo not drawn) came in with a residual activity of 54%.

In a further experiment the target is T2, Sodium- and chloride-dependent GABA transporter 1. The experiment is described as follows: Inhibition of mouse GAT1 expressed in human HEK293 cell line assessed as inhibition of [3H]GABA uptake measured after 40 mins by […]. The format is cell-based.
For the molecule `COc1ccc(C(OCCN2CCC[C@H](C(=O)O)C2)(c2ccc(OC)cc2)c2ccc(-c3ccc(C=O)cc3)cc2)cc1`, the IC50 is 72.4 µM.

Take `CN(CCC=C1c2ccccc2CCc2ccccc21)C(CCN)C(=O)NCc1ccccc1Cl` (stereo not drawn): the IC50 is 6.61 µM.

Turning to `CN(CCC=C1c2ccccc2CCc2ccccc21)C(CCO)C(=O)NCc1ccccc1Cl` (stereo not drawn), the IC50 is 25.1 µM.

Consider `CC(=O)NCCC(C(=O)NCc1ccc(F)cc1)N(C)CCC=C1c2ccccc2CCc2ccccc21` (stereo not drawn), for which the IC50 was 13.8 µM.

Take `CN(CCC=C1c2ccccc2C=Cc2ccccc21)C(CCO)C(=O)NCc1ccc(Cl)cc1` (stereo not drawn): the IC50 is 69.2 µM.

Consider `CN(CCC=C1c2ccccc2C=Cc2ccccc21)C(CCO)C(=O)NCc1ccc(F)cc1` (stereo not drawn), for which the IC50 was 21.9 µM.

On to `CC(=O)NCCC(C(=O)NCc1ccc(Cl)cc1)N(C)CCC=C1c2ccccc2CCc2ccccc21` (stereo not drawn), for which the IC50 was 28.2 µM.

With `CN(CCC=C1c2ccccc2CCc2ccccc21)C(CCN)C(=O)NCc1ccc(F)cc1` (stereo not drawn), the IC50 is 6.31 µM.

In the case of `CN(CCC=C1c2ccccc2CCc2ccccc21)C(CCO)C(=O)NCc1ccc(F)cc1` (stereo not drawn), the IC50 is 21.9 µM.

Regarding `CN(CCC=C1c2ccccc2CCc2ccccc21)C(CCN)C(=O)NCc1ccc(Cl)cc1` (stereo not drawn), the IC50 is 6.31 µM.

For `CC(=O)NCCC(C(=O)NCc1ccccc1Cl)N(C)CCC=C1c2ccccc2CCc2ccccc21` (stereo not drawn), the IC50 is 28.8 µM.

`CC(=O)NCCC(C(=O)NCc1ccc(C)cc1)N(C)CCC=C1c2ccccc2CCc2ccccc21` (stereo not drawn): the IC50 is 13.8 µM.
